Assay results reported in ChEMBL document CHEMBL1137902, “N-Sulfonyl homoserine lactones as antagonists of bacterial quorum sensing” (Bioorg Med Chem Lett, 2004).

These compounds were tested on Aliivibrio fischeri (assay: Tested for the ability to interfere with the induction of luminescence by N-3-oxohexanoyl-L-homoserine lactone in the Vibrio fischeri QS system).
Format: functional, organism-based

Q: With `O=C(CC(=O)NC1CCOC1=O)Cc1ccccc1` (centres undefined) as the compound, how does the IC50 read?
A: The IC50 was 2 µM.

Q: Which IC50 does the source give for `O=C(CCCc1ccccc1)NC1CCOC1=O` (centres undefined) here?
A: Its IC50 is 2 µM.

Q: With `CCCCCS(=O)(=O)NC1CCOC1=O` (centres undefined) as the compound, how does the IC50 read?
A: Its IC50 is 2 µM.

Q: For `CCCCCCCS(=O)(=O)NC1CCOC1=O` (centres undefined), which IC50 is on record?
A: The IC50 was 9 µM.

Q: How did the IC50 turn out when `O=C1OCCC1NS(=O)(=O)CCCc1ccccc1` (centres undefined) was run?
A: Its IC50 is 20 µM.

Q: For `O=C1OCCC1NS(=O)(=O)CCc1ccccc1` (centres undefined), which IC50 is on record?
A: The IC50 was 3 µM.

Q: How did the IC50 turn out when `CCCCCCCCS(=O)(=O)NC1CCOC1=O` (centres undefined) was run?
A: Its IC50 is 10 µM.

Q: For `CCCCS(=O)(=O)NC1CCOC1=O` (centres undefined), which IC50 is on record?
A: Its IC50 is 12 µM.

Q: With `CCCCCCS(=O)(=O)NC1CCOC1=O` (centres undefined) as the compound, how does the IC50 read?
A: The IC50 was 6.5 µM.
